Results published in patent US20080262080A1, “Allergy Suppressive Agent” (KYUSHU UNIVERSITY, NATIONAL UNIVERSITY CORPORATION, priority 2004, published 2008).

Experiments:
[1] = tested on: germline IgE heavy chain transcription (εGT); test: Suppression of IL-4-induced germline IgE heavy chain transcript (εGT) expression in DND39 cells (RT-PCR, blot); assay type: cell-based, human; settings: IL-4 (25 U/ml), chrysin at various concentrations, 48 hours
Experimental: IL-4 (25 U/ml) and chrysin at various concentrations were added to human mature B cell line DND39 cells and then the cells were incubated for 48 hours. mRNA was collected from the cells and cDNA was synthesized. An RT-PCR amplification product was electrophoresed on an agarose gel and transferred onto a membrane and εGT was thus detected. GAPDH (glyceraldehyde-3-phosphate dehydrogenase) was employed as a control. For each concentration or the control, the blot in the right side indicates the result in a 1/10 amount.
As described above, the inhibition of the εGT expression brings about fundamental suppression of IgE production. It is known that human mature B cell line DND39 expresses εGT in response to a stimulus by IL-4. Thus, DND39 cells were incubated in the presence of IL-4 and chrysin and the effect of chrysin on the εGT expression was examined.
Human mature B cell line DND39 was subcultured in a RPMI 1640 medium (Nissui), to which 5% of FBS (Intergen) had been added, at 37° C. and 5% CO2 vapor saturation and maintained therein. […]
The density of DND39 cells was adjusted to 2×10^5 cells/mL and incubated in the presence of IL-4 (25 U/mL) and chrysin at each concentration. […] Then, the RNA concentration was measured using a spectrophotometer Ultrospec 3000 (Pharmacia Biotech, Piscatway, N.J.). […]

[2] = tested on: FcεRI α- and γ-chains mRNA; test: FcεRI mRNA expression in human peripheral blood basophils (RT-PCR); assay type: cell-based; settings: 25 µM of chrysin, 24 hours, vs DMSO
Experimental: Peripheral blood basophils (1×10^6 cells/mL) collected from the vein of a donor were incubated in a medium comprising 25 µM of chrysin or dimethyl sulfoxide (DMSO) for 24 hours. Then, RNA was extracted and the mRNA expression level of each of the FcεRI α- and γ-chains was examined by the RT-PCR method. Venous blood was collected from the forearm elbow of a donor. Then, peripheral blood lymphocytes were separated and purified using Lymphocyte Separation Medium (ICN Biomedical Inc.) and peripheral basophils were separated and purified by the density gradient centrifugation method using Percoll (Amersham Biosciences). The basophils (1×10^6 cells/mL) were incubated in 5% FCS-RPMI 1640 medium, to which 25 µM of chrysin or a solvent dimethylsulfoxide (DMSO) had been added, for 24 hours. RNA was extracted and the mRNA expression levels of FcεRI α- and γ-chains were examined by the RT-PCR method as in Example 1.

O=c1cc(-c2ccccc2)oc2cc(O)cc(O)c12 [Chrysin, 5,7-dihydroxyflavone]
εGT expression [1]: concentration-dependently suppressed | FcεRI α-chain mRNA expression level [2]: strongly lowered | FcεRI γ-chain mRNA expression level [2]: lowered
